Key:
[1] = tested on: Staphylococcus epidermidis; assay: In vivo imaging of Staphylococcus epidermidis thigh infection (FMT2500); design: species or system SKH1-E female mice; settings: 10^8 CFUs i.m. left thigh; 5 nM agent i.v. about 24 hours after inoculation; imaged one, two and three hours after agent injection; all time points
Description: SKH1-E female mice, aged 6-8 weeks, were injected intramuscularly with 10^8 CFUs (colony forming units) of Staphylococcus epidermidis in the left thigh. Mice were given intravenous injections of 5 nM of bacterium targeting agent, compound A7, approximately 24 hours after the initial bacterial inoculation.

[2] = tested on: Staphylococcus epidermidis; assay: In vitro binding of bacterium targeting agent to bacteria, flow cytometry; assay type: cell-based; settings: 10 μM final in TES buffer, RT, 1 hour; FIG. 1A/1B
Description: (§1) Bacteria were grown at 37° C. to an OD600=0.3-0.5 and centrifuged at 3500 rpm for 4 minutes before the subsequent pellets were re-suspended in TES buffer. Bacteria with or without targeting agent were grown under the same conditions. Bacterial targeting agents, compound A7, were incubated with bacterial pellets at a concentration of 10 μM final in TES buffer at RT for 1 hour. […] In this experiment, fluorescence is only associated with bacteria in the presence of the bacterium targeting agent described herein.

[3] = tested on: Escherichia coli; assay: as above; assay type: cell-based; settings: 10 μM final in TES buffer, RT, 1 hour; FIG. 1A/1B
Description: as §1

[4] = tested on: Escherichia coli; assay: In vivo imaging of Escherichia coli thigh infection (FMT2500); design: species or system SKH1-E female mice; settings: 10^5-10^8 CFUs i.m. left thigh; 5 nM agent i.v. about 24 hours after inoculation; imaged one hour after agent injection
Description: SKH1-E female mice, aged 6-8 weeks, were injected intramuscularly in the left thigh with different concentrations of Escherichia coli at 10^5-10^8 CFUs. At approximately 24 hours after the initial bacterial inoculation, mice were given intravenous injections of 5 nM of bacterium targeting agent, compound A7.

CN1/C(=C/C=C(/C=C/C2=[N+](CCCS(=O)(=O)O)c3ccccc3C2(C)C)c2ccc(C(=O)NCCCCCC(=O)NCC(=O)Nc3ccc(CC[N+]45CC[N+](C)(CC4)CC5)cc3)cn2)C(C)(C)c2ccccc21 [Compound A7, 3-(3,3-dimethyl-2-((1E,3Z,5E)-3-(5-((6-((2-((4-(2-(4-methyl-1,4-diazabicyclo[2.2.2]octan-1,4-diium-1-yl)ethyl)phenyl)amino)-2-oxoethyl)amino)-6-oxohexyl)carbamoyl)pyridin-2-yl)-5-(1,3,3-trimethylindolin-2-ylidene)penta-1,3-dien-1-yl)-3H-indol-1-ium-1-yl)propane-1-sulfonate di-acetate]
differentiation between infected and uninfected areas (fluorescence, tomographic imaging) [1]: Statistically significant differentiation between infected and uninfected areas
in vitro binding to bacteria (fluorescence by flow cytometry) [2]: in vitro binding
in vitro binding to bacteria (fluorescence by flow cytometry) [3]: in vitro binding
uptake of the agent at the site of infection (tomographic images) [4]: clear uptake of the bacterial targeting agent at the site of the infection
